Experiment [1] has as its target T1, BaF3 TELJAK2 cells (BafT_J2) (Homo sapiens, UniProt O60674).
T1 construct: fused on or other part: TEL (ETV6) N-terminal part, coding nucleotides 1-487, serves as the oligomerising partner; It is fused through a Sal I site to the JAK2 kinase domain and expressed from pTRE2 in BaF3 cells bearing pTET-off; P41212 (Transcription factor ETV6)
The experiment can be described thus: Cellular screening, BaF3 TEL:JAK2 cells, Alamar Blue. It is filed as cell-based. The following applies: 40 hr, read-out: BafT_J2 IC50_nM. The essentials: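 Tet-off BaF3 cells carrying a TEL (nt 1-487)–JAK2 kinase-domain fusion, grown factor-independently in DMEM with 10% Tet-approved FBS without WEHI 3B medium. Compounds were diluted to 20 μM in screening plates, and cells (50,000–200,000 cell/mL at 1.1×) were incubated 40 hr at 37 °C, 5% CO2. Alamar Blue was then added for 4-6 hours; read at 544 nm.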
A general note: Alamar Blue is a resazurin reagent that responds to reducing activity.

The next experiment deals with BaF3 wild-type cells. As to the kind of experiment: Cellular screening, BaF3 wild-type cells, Alamar Blue. Type of experiment: cell-based. To be noted: Mus musculus, 40 hr, read-out: BAF3wt IC50_nM. The essentials:
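Compounds, screened from dilution plates at 20 μM, were added as 10× final stocks to cells grown in DMEM/10% FCS/10% WEHI 3B conditioned medium. Cells were seeded at 1.1× final (50,000–200,000 cells/mL) and incubated 40 hr at 37° C, 5% CO2. Viability was read at 544 nm after a further 4–6 hours with Alamar Blue.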

For a further experiment, the system named is CTLL2. As to the kind of experiment: Cellular screening, CTLL2 cells, Alamar Blue. Type of experiment: cell-based. The following applies: Mus musculus, CTLL-2, read-out: CTLL2 IC50_nM. The method in brief: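 Viability is read with Alamar Blue at 544 nm, the dye added for the final 4-6 hours. Compounds were incubated for 40 hr with CTLL2 cells taken from late-log-phase culture, at 37° C in 5% CO2.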

Another experiment deals with T2, human JAK2 (Homo sapiens, UniProt O60674).
T2 construct: The kinase domain of human JAK2 was amplified; GST (N); made in house; host or cells: Sf9 insect cells (baculovirus)
The experiment can be described thus: Alphascreen tyrosine kinase enzyme assay, JAK2 kinase domain. It is filed as biochemical. To be noted: read-out: JAK2 IC50_nM. The method in brief: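 JAK2 kinase domain expressed in baculovirus/Sf9 and glutathione-affinity purified. Compounds (final […]) pre-incubated 20 min with enzyme in 10 mM HEPES pH 7.5, MgCl2, NaCl, vanadate, 0.1% Tween 20.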

In a further experiment the target is T3, human JAK1 (Homo sapiens, UniProt P23458).
T3 construct: The kinase domain of human JAK1 was amplified; GST (N); made in house; host or cells: Sf9 insect cells (baculovirus)
The experiment can be described thus: Alphascreen tyrosine kinase enzyme assay, JAK1 kinase domain. The following applies: read-out: JAK1 IC50_nM. Type of experiment: biochemical. In general terms: In Alpha technology, singlet oxygen from a donor bead excites a nearby acceptor bead.

T2 sequence (O60674 849-1124 limits assumed): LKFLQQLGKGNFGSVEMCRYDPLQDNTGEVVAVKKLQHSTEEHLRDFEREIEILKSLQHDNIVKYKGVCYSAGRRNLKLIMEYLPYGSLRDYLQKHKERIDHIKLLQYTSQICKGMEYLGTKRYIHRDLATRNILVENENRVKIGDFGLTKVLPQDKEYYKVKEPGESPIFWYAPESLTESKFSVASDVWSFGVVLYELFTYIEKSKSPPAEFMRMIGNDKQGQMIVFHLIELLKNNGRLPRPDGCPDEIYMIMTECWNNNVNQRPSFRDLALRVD
T3 sequence (P23458 875-1153 limits assumed): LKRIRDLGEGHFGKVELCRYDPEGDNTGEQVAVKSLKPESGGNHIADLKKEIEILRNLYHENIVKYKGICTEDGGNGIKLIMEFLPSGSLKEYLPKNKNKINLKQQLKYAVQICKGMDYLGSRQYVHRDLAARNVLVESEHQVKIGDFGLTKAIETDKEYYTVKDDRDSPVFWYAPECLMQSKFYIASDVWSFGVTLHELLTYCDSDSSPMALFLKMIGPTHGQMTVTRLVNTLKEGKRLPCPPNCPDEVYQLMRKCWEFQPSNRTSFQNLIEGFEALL
T1 sequence (O60674 whole entry, change not shown, the tested form may be a part): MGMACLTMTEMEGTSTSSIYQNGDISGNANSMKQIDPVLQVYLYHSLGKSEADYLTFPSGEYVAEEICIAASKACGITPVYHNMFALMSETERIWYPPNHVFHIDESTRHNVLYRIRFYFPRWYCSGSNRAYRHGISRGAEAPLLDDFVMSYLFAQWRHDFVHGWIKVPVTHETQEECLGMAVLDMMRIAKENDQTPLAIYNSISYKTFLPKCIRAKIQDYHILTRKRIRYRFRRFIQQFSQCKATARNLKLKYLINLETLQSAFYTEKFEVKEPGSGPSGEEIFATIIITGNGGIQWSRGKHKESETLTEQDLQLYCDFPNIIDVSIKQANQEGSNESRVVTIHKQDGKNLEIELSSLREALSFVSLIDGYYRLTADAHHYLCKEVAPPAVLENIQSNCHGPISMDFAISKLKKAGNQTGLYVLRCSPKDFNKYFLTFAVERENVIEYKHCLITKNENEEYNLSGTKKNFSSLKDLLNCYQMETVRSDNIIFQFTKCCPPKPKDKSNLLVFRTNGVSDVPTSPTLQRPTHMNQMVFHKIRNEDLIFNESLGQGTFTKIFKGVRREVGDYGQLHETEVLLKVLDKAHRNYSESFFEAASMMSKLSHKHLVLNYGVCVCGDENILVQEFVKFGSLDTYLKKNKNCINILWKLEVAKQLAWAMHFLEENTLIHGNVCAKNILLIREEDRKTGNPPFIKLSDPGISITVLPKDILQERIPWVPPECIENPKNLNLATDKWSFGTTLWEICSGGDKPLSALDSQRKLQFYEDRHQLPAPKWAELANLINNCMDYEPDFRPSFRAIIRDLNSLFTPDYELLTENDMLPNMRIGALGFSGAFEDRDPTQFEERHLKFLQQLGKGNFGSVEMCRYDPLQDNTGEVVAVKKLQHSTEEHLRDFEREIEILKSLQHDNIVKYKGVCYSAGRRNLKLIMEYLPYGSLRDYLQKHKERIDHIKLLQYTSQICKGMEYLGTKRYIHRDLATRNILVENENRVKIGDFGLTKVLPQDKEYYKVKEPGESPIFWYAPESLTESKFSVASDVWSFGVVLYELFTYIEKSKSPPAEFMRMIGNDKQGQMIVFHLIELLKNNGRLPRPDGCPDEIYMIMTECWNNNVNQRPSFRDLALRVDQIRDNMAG

Turning to `N#Cc1ncn(Cc2ccc(Sc3ccnc(Nc4ccc(N5CCOCC5)cc4)n3)cc2)c1C#N` [Compound 201, 1-(4-(2-(4-morpholinophenylao)pyrimidin-4-ylthio)benzyl)-1H-imidazole-4,5-dicarbonitrile], the GI50 in experiment [1] is less than 5 µM. Also, the IC50 with BaF3 wild-type cells is less than 5 µM; with CTLL2 it was less than 5 µM; on human JAK2 it was greater than 1 µM; on human JAK1 it was greater than 1 µM.

For `Cc1cnc(Nc2ccc(N3CCOCC3)cc2)nc1Sc1ccc(NC(=O)CSCC(=O)O)cc1` [Compound 230, 2-(2-(4-(5-methyl-2-(4-morpholinophenylao)pyrimidin-4-ylthio)phenylao)-2-oxoethylthio)acetic acid], in experiment [1], the GI50 was greater than 20 µM. In addition, the IC50 was greater than 20 µM with BaF3 wild-type cells, greater than 20 µM in the experiment with CTLL2, less than 0.5 µM at human JAK2 and less than 1 µM at human JAK1.

Regarding `Cc1cnc(Nc2ccc(N3CCOCC3)cc2)nc1Sc1ccc(N2C(=O)CSCC2=O)cc1` [Compound 231, 4-(4-(5-methyl-2-(4-morpholinophenylao)pyrimidin-4-ylthio)phenyl)thiomorpholine-3,5-dione], the GI50 in experiment [1] was less than 20 µM. The IC50 with BaF3 wild-type cells is greater than 20 µM; in the experiment on CTLL2 it was less than 20 µM; on human JAK2, greater than 1 µM; on human JAK1 it was greater than 1 µM.

With `C=CC(=O)Nc1ccc(Sc2nc(Nc3ccc(N4CCN(C)CC4)cc3)ncc2C)cc1` [Compound 239, N-(4-(5-methyl-2-(4-(4-methylpiperazin-1-yl)phenylao)pyrimidin-4-ylthio)phenyl)acrylamide], in experiment [1], the GI50 was less than 5 µM. Moreover, the IC50 in the experiment on BaF3 wild-type cells was less than 5 µM; in the experiment with CTLL2, less than 1 µM; at human JAK2, less than 1 µM; on human JAK1, less than 0.5 µM.

Consider `C=CC(=O)Nc1ccc(Sc2nc(Nc3ccc(OC)c(OC)c3)ncc2C)cc1` [Compound 241, N-(4-(2-(3,4-dimethoxyphenylao)-5-methylpyrimidin-4-ylthio)phenyl)acrylamide], for which, in experiment [1], the GI50 is less than 5 µM. In addition, the IC50 in the experiment on BaF3 wild-type cells was less than 20 µM; in the experiment on CTLL2 it was less than 1 µM; at human JAK2, greater than 1 µM; on human JAK1, greater than 1 µM.

On to `C=CC(=O)Nc1ccc(Sc2nc(Nc3cccc(N4CCN(C)CC4)c3)ncc2C)cc1` [Compound 243, N-(4-(5-methyl-2-(3-(4-methylpiperazin-1-yl)phenylao)pyrimidin-4-ylthio)phenyl)acrylamide], for which the GI50 in experiment [1] was less than 5 µM. Further, the IC50 in the experiment on BaF3 wild-type cells was less than 5 µM; in the experiment with CTLL2, less than 1 µM; on human JAK2, greater than 1 µM; on human JAK1, greater than 1 µM.

Take `C=CC(=O)Nc1ccc(Sc2nc(Nc3ccc(N4CCOCC4)c(OC)c3)ncc2C)cc1` [Compound 248, N-(4-(2-(3-methoxy-4-morpholinophenylao)-5-methylpyrimidin-4-ylthio)phenyl)acrylamide]: the GI50 in experiment [1] was less than 20 µM. For the same molecule, the IC50 with BaF3 wild-type cells was less than 5 µM; in the experiment on CTLL2, less than 1 µM; at human JAK2, greater than 1 µM; at human JAK1, greater than 1 µM.

Consider `C=CC(=O)N(C)c1ccc(Sc2nc(Nc3ccc(N4CCOCC4)cc3)ncc2Br)cc1` [Compound 261, N-(4-(5-bromo-2-(4-morpholinophenylao)pyrimidin-4-ylthio)phenyl)-N-methylacrylamide], for which the GI50 in experiment [1] was greater than 20 µM. Further, the IC50 is greater than 20 µM in the experiment on BaF3 wild-type cells, less than 1 µM with CTLL2, less than 0.5 µM on human JAK2 and greater than 1 µM at human JAK1.

On to `C=CC(=O)Nc1ccc(Sc2nc(Nc3cccc(N4CCOCC4)c3)ncc2F)cc1` [Compound 267, N-(4-(5-fluoro-2-(3-morpholinophenylao)pyrimidin-4-ylthio)phenyl)acrylamide], for which, in experiment [1], the GI50 is less than 5 µM. Besides, the IC50 with BaF3 wild-type cells was less than 5 µM; with CTLL2, less than 1 µM; at human JAK2, greater than 1 µM; on human JAK1, greater than 1 µM.

Turning to `C=CC(=O)Nc1ccc(Sc2nc(Nc3ccc(N4CCOCC4)cc3)ncc2F)cc1` [Compound 268, N-(4-(5-fluoro-2-(4-morpholinophenylao)pyrimidin-4-ylthio)phenyl)acrylamide], in experiment [1], the GI50 is greater than 20 µM. The IC50 in the experiment with BaF3 wild-type cells was greater than 20 µM; with CTLL2 it was less than 1 µM; at human JAK2, greater than 1 µM; on human JAK1, greater than 1 µM.

As to `C=CC(=O)Nc1ccc(Sc2nc(Nc3cccc(CO)c3)ncc2C)cc1` [Compound 280, N-(4-(2-(3-(hydroxymethyl)phenylao)-5-methylpyrimidin-4-ylthio)phenyl)acrylamide], the GI50 in experiment [1] was less than 20 µM. Further, the IC50 is less than 20 µM in the experiment with BaF3 wild-type cells, less than 1 µM in the experiment on CTLL2, greater than 1 µM at human JAK2 and greater than 1 µM on human JAK1.

Turning to `C=CC(=O)Nc1ccc(Sc2nc(Nc3ccc(NS(C)(=O)=O)cc3)ncc2C)cc1` [Compound 285, N-(4-(5-methyl-2-(4-(methylsulfonamido)phenylao)pyrimidin-4-ylthio)phenyl)acrylamide], in experiment [1], the GI50 is less than 5 µM. The IC50 with BaF3 wild-type cells is less than 5 µM; in the experiment with CTLL2 it was less than 1 µM; on human JAK2, greater than 1 µM; on human JAK1, greater than 1 µM.

`C=CC(=O)Nc1ccc(Sc2nc(Nc3ccc(N4CCC(CO)CC4)cc3)ncc2C)cc1` [Compound 286, N-(4-(2-(4-(4-(hydroxymethyl)piperidin-1-yl)phenylao)-5-methylpyrimidin-4-ylthio)phenyl)acrylamide]: the GI50 in experiment [1] is greater than 20 µM. The IC50 is greater than 20 µM in the experiment with BaF3 wild-type cells, less than 1 µM in the experiment on CTLL2, greater than 1 µM at human JAK2 and greater than 1 µM on human JAK1.

Consider `C=CC(=O)Nc1ccc(Sc2nc(Nc3cccc(NS(C)(=O)=O)c3)ncc2C)cc1` [Compound 288, N-(4-(5-methyl-2-(3-(methylsulfonamido)phenylao)pyrimidin-4-ylthio)phenyl)acrylamide], for which the GI50 in experiment [1] was less than 20 µM. The IC50 in the experiment on BaF3 wild-type cells is less than 20 µM; in the experiment on CTLL2, less than 1 µM; on human JAK2, greater than 1 µM; at human JAK1 it was greater than 1 µM.

Regarding `C=CC(=O)Nc1ccc(Sc2nc(Nc3ccc(OCCN4CCOCC4)cc3)ncc2C)cc1` [Compound 290, N-(4-(5-methyl-2-(4-(2-morpholinoethoxy)phenylao)pyrimidin-4-ylthio)phenyl)acrylamide], the GI50 in experiment [1] is less than 20 µM. Also, the IC50 with BaF3 wild-type cells was less than 5 µM; in the experiment on CTLL2, less than 1 µM; at human JAK2, greater than 1 µM; on human JAK1 it was greater than 1 µM.

As for `C=CC(=O)Nc1ccc(Sc2nc(Nc3ccc(OCCCN(CC)CC)cc3)ncc2C)cc1` [Compound 291, N-(4-(2-(4-(3-(diethylao)propoxy)phenylao)-5-methylpyrimidin-4-ylthio)phenyl)acrylamide], in experiment [1], the GI50 was less than 5 µM. The IC50 is less than 5 µM with BaF3 wild-type cells, less than 1 µM in the experiment with CTLL2, greater than 1 µM on human JAK2 and greater than 1 µM at human JAK1.

For `C=CC(=O)Nc1ccc(Sc2nc(Nc3ccc(OC)c(NS(C)(=O)=O)c3)ncc2C)cc1` [Compound 293, N-(4-(2-(4-methoxy-3-(methylsulfonamido)phenylao)-5-methylpyrimidin-4-ylthio)phenyl)acrylamide], the GI50 in experiment [1] is less than 5 µM. Moreover, the IC50 in the experiment on BaF3 wild-type cells was less than 5 µM; with CTLL2, less than 1 µM; on human JAK2, greater than 1 µM; at human JAK1 it was greater than 1 µM.

As to `C=CC(=O)Nc1ccc(Sc2nc(Nc3ccc(N4CCC(O)C4)cc3)ncc2C)cc1` (stereo not shown) [Compound 295, N-(4-(2-(4-(3-hydroxypyrrolidin-1-yl)phenylao)-5-methylpyrimidin-4-ylthio)phenyl)acrylamide], the GI50 in experiment [1] was greater than 20 µM. The IC50 with BaF3 wild-type cells is greater than 20 µM; in the experiment with CTLL2, less than 1 µM; at human JAK2, greater than 1 µM; at human JAK1, greater than 1 µM.

For `C=CC(=O)Nc1ccc(Sc2nc(Nc3ccc(NS(C)(=O)=O)c(OC)c3)ncc2C)cc1` [Compound 296, N-(4-(2-(3-methoxy-4-(methylsulfonamido)phenylao)-5-methylpyrimidin-4-ylthio)phenyl)acrylamide], the GI50 in experiment [1] is less than 5 µM. In addition, the IC50 was less than 5 µM with BaF3 wild-type cells, less than 1 µM with CTLL2, greater than 1 µM on human JAK2 and greater than 1 µM at human JAK1.

`C=CC(=O)Nc1ccc(Sc2nc(Nc3ccc(N4CCCC(O)C4)cc3)ncc2C)cc1` (stereo not shown) [Compound 299, N-(4-(2-(4-(3-hydroxypiperidin-1-yl)phenylao)-5-methylpyrimidin-4-ylthio)phenyl)acrylamide]: in experiment [1], the GI50 was less than 20 µM. Further, the IC50 with BaF3 wild-type cells was less than 20 µM; in the experiment with CTLL2, less than 1 µM; at human JAK2 it was greater than 1 µM; on human JAK1, greater than 1 µM.

The record behind these values is patent publication US8846704B2, “Thiopyrimidine-based compounds and uses thereof” (YM Biosciences Austraila Pty Ltd, priority 2007, dated 2014).
